Experimental data from ChEMBL document CHEMBL6153025, “Multidrug-resistant bacteria quorum-sensing inhibitors: A particular focus on Pseudomonasaeruginosa” (Eur J Med Chem, 2025).
pIC50: −log10 of the molar value.

Target: T1, Transcriptional activator protein LasR (Pseudomonas aeruginosa (strain ATCC 15692 / PAO1 / 1C / PRS 101 / LMG12228)) (UniProt P25084)
T1 sequence (whole entry): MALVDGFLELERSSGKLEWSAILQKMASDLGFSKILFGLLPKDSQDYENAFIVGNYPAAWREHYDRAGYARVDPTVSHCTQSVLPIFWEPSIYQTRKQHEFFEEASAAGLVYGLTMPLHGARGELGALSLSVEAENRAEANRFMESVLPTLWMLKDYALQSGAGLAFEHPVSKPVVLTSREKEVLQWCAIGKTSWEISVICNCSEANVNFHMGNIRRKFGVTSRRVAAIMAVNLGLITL
Assay: Inhibition of LasR-mediated quorum sensing system in Pseudomonas aeruginosa PAO1 at 128 ug/ml relative to control
Conditions: dose 128.0 µg/ml

| Compound | inhibition [%] |
| --- | --- |
| O=C(CC1CCC(F)CC1)Oc1cccc([N+](=O)[O-])c1 (stereo unspecified) | 50.2 |
| CN1CCN(CC(=O)Oc2cccc([N+](=O)[O-])c2)CC1 | 78.8 |
| O=C(Oc1cccc([N+](=O)[O-])c1)C(=O)N1CCOCC1 | 50.2 |
| O=C(CN1CCOCC1)Oc1ccccc1[N+](=O)[O-] | 50.2 |
| O=C(OCCN1CCOCC1)c1cccc([N+](=O)[O-])c1 | 92.3 |
| CC(C)(C)c1cccc(OC(=O)CN2CCOCC2)c1 | 50.2 |
| O=C(CN1CCOCC1)Oc1ccc([N+](=O)[O-])cc1 | 82.3 |
| O=C(CN1CCSCC1)Oc1cccc([N+](=O)[O-])c1 | 90.2 |
| O=C(CN1CCOCC1)Oc1cccc([N+](=O)[O-])c1 | 61.6 |
| O=C(CCN1CCOCC1)Oc1cccc([N+](=O)[O-])c1 | 78.8 |

Tested on: Pseudomonas aeruginosa
Assay: Anti-virulence activity against Pseudomonas aeruginosa PAO1-L assessed as reduction in pyocyanin production at 10 uM incubated for 24 hrs by absorbance based analysis relative to control
Assay type: functional
Set-up: scale not given: the % may be the effect or the level left
Conditions: not given

| Compound | Activity [%] |
| --- | --- |
| CCCCCCCCSSc1nc2ccccc2c(=O)n1-c1ccccc1 | 94 |
| CCCCCCC1=NC(Cn2cnc3cc(Cl)ccc3c2=O)CS1 (stereo unspecified) | 46 |
| CCCCCCSSc1nc2cccc(Cl)c2c(=O)n1-c1ccccc1 | 94 |
| CCCCSSc1nc2ccccc2c(=O)n1C1CC1 | 94 |
| CCCCSSc1nc2ccccc2c(=O)[nH]1 | 94 |
| C=CCSSc1nc2ccccc2c(=O)n1-c1ccccc1 | 94 |
| CCCCCCSSc1nc2ccccc2c(=O)n1-c1ccccc1 | 94 |
| CCCCCCSSc1nc2ccc(Cl)cc2c(=O)n1-c1ccccc1 | 94 |
| CCCCCCSSc1nc2ccccc2c(=O)[nH]1 | 94 |
| CCCCCCCCSSc1nc2cccc(Cl)c2c(=O)n1-c1ccccc1 | 94 |
| C=CCSSc1nc2ccc(Cl)cc2c(=O)n1-c1ccccc1 | 94 |
| CCCCCCCCSSc1nc2ccc(Cl)cc2c(=O)n1-c1ccccc1 | 94 |
| CCCCCCSSc1nc2ccccc2c(=O)n1C1CC1 | 94 |
| CCCCCCCCSSc1nc2ccccc2c(=O)n1C1CC1 | 94 |
| CCCCSSc1nc2ccc(Cl)cc2c(=O)n1-c1ccccc1 | 94 |
| CCCCCCCCCc1nc2cc(Cl)ccc2c(=O)n1N | 46 |
| CCCCSSc1nc2cccc(Cl)c2c(=O)n1-c1ccccc1 | 94 |
| C=CCSSc1nc2ccccc2s1 | 46 |
| CCCCSSc1nc2ccccc2c(=O)n1-c1ccccc1 | 94 |

Tested on: Bacillus subtilis
Assay: Antibacterial activity against Bacillus subtilis
Assay type: functional
Conditions: not given

| Compound | MIC [µg/mL] |
| --- | --- |
| CCCCCCCCCCCC(=O)NN1C(=O)CN(c2ccccc2O)C1=O | > 512 |
| O=C(CCCCCOc1cccc(F)c1)NN1C(=O)CN(c2ccccc2O)C1=O | > 512 |
| O=C(CCCCCOc1ccc(Cl)cc1)NN1C(=O)CN(c2ccccc2O)C1=O | > 512 |

Tested on: Escherichia coli
Assay: Antibacterial activity against Escherichia coli
Assay type: functional
Conditions: not given

| Compound | MIC [µg/mL] |
| --- | --- |
| CCCCCCCCCCCC(=O)NN1C(=O)CN(c2ccccc2O)C1=O | > 512 |
| O=C(CCCCCOc1cccc(F)c1)NN1C(=O)CN(c2ccccc2O)C1=O | > 512 |
| O=C(CCCCCOc1ccc(Cl)cc1)NN1C(=O)CN(c2ccccc2O)C1=O | > 512 |

Tested on: Pseudomonas aeruginosa
Assay: Anti-virulence effect in Pseudomonas aeruginosa PAO1 assessed as inhibition of rhamnolipid production at 10 uM relative to control
Assay type: functional
Set-up: scale not given: the % may be the effect or the level left
Conditions: not given

| Compound | Activity [%] |
| --- | --- |
| O=C(CCCCCOc1cccc(F)c1)NN1C(=O)CN(c2ccccc2O)C1=O | 2.76 |
| O=C(CCCCCOc1ccc(Cl)cc1)NN1C(=O)CN(c2ccccc2O)C1=O | 2.76 |
| Cc1ccc(OCCCCCC(=O)NNC(=O)Cn2c(=O)oc3ccccc32)cc1 | 2.53 |
| O=C(CCCCCOc1cccc(C(F)(F)F)c1)NNC(=O)Cn1c(=O)oc2ccccc21 | 2.53 |
| O=C(CCCCCOc1ccc(F)cc1)NNC(=O)Cn1c(=O)oc2ccccc21 | 2.53 |
| CCCCCCCCC(=O)NNC(=O)Cn1c(=O)oc2ccccc21 | 6.34 |
| O=C(CCCCCOc1ccc(C(F)(F)F)cc1)NNC(=O)Cn1c(=O)oc2ccccc21 | 2.53 |

Tested on: Bacillus pumilus
Assay: Antibacterial activity against Bacillus pumilus
Assay type: functional
Conditions: not given

| Compound | MIC [µg/mL] |
| --- | --- |
| CCCCCCCCCCCC(=O)NN1C(=O)CN(c2ccccc2O)C1=O | > 512 |
| O=C(CCCCCOc1cccc(F)c1)NN1C(=O)CN(c2ccccc2O)C1=O | > 512 |
| O=C(CCCCCOc1ccc(Cl)cc1)NN1C(=O)CN(c2ccccc2O)C1=O | > 512 |

Tested on: Staphylococcus aureus
Assay: Antibacterial activity against Methicillin-sensitive Staphylococcus aureus
Assay type: functional
Conditions: not given

| Compound | MIC [µg/mL] |
| --- | --- |
| CCCCCCCCCCCC(=O)NN1C(=O)CN(c2ccccc2O)C1=O | > 512 |
| O=C(CCCCCOc1cccc(F)c1)NN1C(=O)CN(c2ccccc2O)C1=O | > 512 |
| O=C(CCCCCOc1ccc(Cl)cc1)NN1C(=O)CN(c2ccccc2O)C1=O | > 512 |

Tested on: Pseudomonas aeruginosa
Assay: Antibacterial activity against Pseudomonas aeruginosa
Assay type: functional
Conditions: not given

| Compound | MIC [µg/mL] |
| --- | --- |
| CCCCCCCCCCCC(=O)NN1C(=O)CN(c2ccccc2O)C1=O | > 512 |
| O=C(CCCCCOc1cccc(F)c1)NN1C(=O)CN(c2ccccc2O)C1=O | > 512 |
| O=C(CCCCCOc1ccc(Cl)cc1)NN1C(=O)CN(c2ccccc2O)C1=O | > 512 |

Tested on: Pseudomonas aeruginosa
Assay: Antibacterial activity against Pseudomonas aeruginosa ATCC 15442 assessed as reduction in bacterial cell growth incubated for 24 hrs by two fold serial microdilution method
Assay type: functional
Conditions: not given

| Compound | MIC [µM] |
| --- | --- |
| Fc1cccc(CNCCCCCCCCNc2ccnc3cc(Cl)ccc23)c1 | > 2 |
| NCCCCCCCCCCCCNc1ccnc2cc(C(F)(F)F)ccc12 | > 2 |
| Clc1ccc2c(NCCCCCCCCNCc3ccccc3)ccnc2c1 | > 2 |
| NCCCCCCCCCCCCNc1ccnc2cc(Cl)ccc12 | > 2 |
| Clc1ccc2c(NCCCCCCCCNCc3ccccc3Cl)ccnc2c1 | > 2 |
| Clc1ccc2c(NCCCCCCNCCc3ccccc3)ccnc2c1 | > 2 |
| Clc1ccc2c(NCCCCCCCCNCCc3ccccc3)ccnc2c1 | > 2 |
| Fc1ccc(CNCCCCCCCCNc2ccnc3cc(Cl)ccc23)cc1 | > 2 |
| Clc1cccc(CNCCCCCCCCNc2ccnc3cc(Cl)ccc23)c1 | > 2 |
| Clc1ccc2c(NCCCCCCCCCCCCNCc3ccccc3)ccnc2c1 | > 2 |
| Clc1ccc(CNCCCCCCCCNc2ccnc3cc(Cl)ccc23)cc1 | > 2 |
| CC(C)NCCCCCCCCNc1ccnc2cc(Cl)ccc12 | > 2 |
| [N-]=[N+]=Nc1ccc(CNCCCCCCCCNc2ccnc3cc(Cl)ccc23)cc1 | > 2 |
| Clc1ccc2c(NCCCCCCNCc3ccccc3)ccnc2c1 | > 2 |
| CN(C)CCCCCCCCNc1ccnc2cc(Cl)ccc12 | > 2 |

Tested on: not listed separately
Assay: Inhibition of quorum sensing system in Pseudomonas aeruginosa PAO1 expressing lasB-gfp
Conditions: not given

| Compound | pIC50 |
| --- | --- |
| O=c1c2cc([N+](=O)[O-])ccc2ncn1CC(O)COc1ccccc1 (stereo unspecified) | 6.22 |
| N#CCc1ccc(NCC(O)Cn2cnc3ccc(Cl)cc3c2=O)cc1 (stereo unspecified) | 5.49 |
| O=c1c2cc(Cl)cc(Cl)c2ncn1CC(O)COc1ccccc1 (stereo unspecified) | 6.22 |
| O=c1c2cc(Br)ccc2ncn1CC(O)COc1ccccc1 (stereo unspecified) | 6.10 |
| O=c1c2c(Cl)cccc2ncn1CC(O)COc1ccccc1 (stereo unspecified) | 6.22 |
| O=c1c2cc(C(F)(F)F)ccc2ncn1CC(O)COc1ccccc1 (stereo unspecified) | 6.22 |
| N#CCc1ccc(OCC(O)Cn2cnc3ccc(Cl)cc3c2=O)cc1 (stereo unspecified) | 5.49 |
| O=c1c2cccc(Cl)c2ncn1CC(O)COc1ccccc1 (stereo unspecified) | 6.22 |
| O=c1c2ccc(Cl)cc2ncn1CC(O)COc1ccccc1 (stereo unspecified) | 6.22 |
| O=c1c2cc(Cl)c(Cl)cc2ncn1CC(O)COc1ccccc1 (stereo unspecified) | 6.22 |

Tested on: Pseudomonas aeruginosa
Assay: Antibiofilm activity against Pseudomonas aeruginosa PAO1 assessed as inhibition of biofilm formation at 32 ug/ml incubated for 8 hrs by crystal violet staining based assay relative to control
Assay type: functional
Set-up: scale not given: the % may be the effect or the level left
Conditions: dose 32 µg/ml

| Compound | Activity [%] |
| --- | --- |
| [O-][S+](Cc1ccc2c(O)cccc2c1)c1nnn(-c2ccccc2)n1 (stereo unspecified) | 1.64 |
| [O-][S+](Cc1ccc2c(O)cccc2c1)c1nnc(-c2ccccc2)o1 (stereo unspecified) | 40.88 |
| [O-][S+](Cc1ccccc1Cl)c1nnn(-c2ccccc2)n1 (stereo unspecified) | 1.64 |
| Cc1ccc(C[S+]([O-])c2nnc(-c3ccccc3)o2)cc1 (stereo unspecified) | 40.6 |
| [O-][S+](Cc1cccc(Cl)c1)c1nnn(-c2ccccc2)n1 (stereo unspecified) | 1.64 |
| COc1ccc(C[S+]([O-])c2nnc(-c3ccccc3)o2)cc1 (stereo unspecified) | 21.94 |
| [O-][S+](Cc1ccc(F)cc1)c1nnc(-c2ccccc2)o1 (stereo unspecified) | 23.17 |
| [O-][S+](Cc1ccccc1Cl)c1nnc(-c2ccccc2)o1 (stereo unspecified) | 40.6 |
| Clc1ccc(SSc2nc3ccccc3s2)cc1 | 40.6 |
| [O-][S+](Cc1ccccc1)c1nnn(-c2ccccc2)n1 (stereo unspecified) | 1.64 |
| COc1cc(C[S+]([O-])c2nnc(-c3ccccc3)o2)cc(OC)c1 (stereo unspecified) | 21.94 |
| [O-][S+](Cc1ccc(Br)cc1)c1nnc(-c2ccccc2)o1 (stereo unspecified) | 21.94 |
| [O-][S+](Cc1ccc(Cl)cc1)c1nnn(-c2ccccc2)n1 (stereo unspecified) | 1.64 |
| [O-][S+](Cc1ccc(Br)cc1)c1nnn(-c2ccccc2)n1 (stereo unspecified) | 1.64 |
| Cc1ccc(C[S+]([O-])c2nnn(-c3ccccc3)n2)cc1 (stereo unspecified) | 1.64 |
| [O-][S+](Cc1ccccc1)c1nnc(-c2ccccc2)o1 (stereo unspecified) | 40.6 |
| [O-][S+](Cc1ccc(F)cc1)c1nnn(-c2ccccc2)n1 (stereo unspecified) | 1.64 |
| O=[N+]([O-])c1ccc(C[S+]([O-])c2nnc(-c3ccccc3)o2)cc1 (stereo unspecified) | 40.6 |
| [O-][S+](Cc1ccc(Cl)cc1)c1nc2ccccc2s1 (stereo unspecified) | 40.6 |
| [O-][S+](Cc1ccc(C(F)(F)F)cc1)c1nnc(-c2ccccc2)o1 (stereo unspecified) | 21.94 |
| [O-][S+](Cc1cccc(Cl)c1)c1nnc(-c2ccccc2)o1 (stereo unspecified) | 40.6 |
| COc1cccc(C[S+]([O-])c2nnc(-c3ccccc3)o2)c1 (stereo unspecified) | 21.94 |
| [O-][S+](Cc1ccc(C(F)(F)F)cc1)c1nnn(-c2ccccc2)n1 (stereo unspecified) | 1.64 |
| COc1cccc(C[S+]([O-])c2nnn(-c3ccccc3)n2)c1 (stereo unspecified) | 1.64 |
| O=[N+]([O-])c1ccc(C[S+]([O-])c2nnn(-c3ccccc3)n2)cc1 (stereo unspecified) | 1.64 |
